Data taken from patent US10550190B2 (Merck Sharp & Dohme Corp., priority 2014, dated 2020).
Like-named read-outs stand apart in the source and are kept apart here. One block for each compound: values may come before it.

Assays:
[1] = In vitro stability, rat liver lysosome incubation
[2] = In vitro stability, human whole blood incubation
[3] = Solubility of drug-linkers in 20% MeCN/H2O; settings: aqueous with cosolvent or surfactant or cyclodextrin
physchem = settings: aqueous with cosolvent or surfactant or cyclodextrin
[4] = not given; remark: listed apart in the source
[5] = Matrix spiking (time 0 sample, lysosomes pretreated with stopping reagent)

SMILES: C[C@@H]1C[C@H]2[C@@H]3CCC4=CC(=O)C=C[C@]4(C)[C@@]3(F)[C@@H](O)C[C@]2(C)[C@@]1(O)C(=O)COP(=O)(O)OP(=O)(O)Oc1ccc(NC(=O)COC2C#CCCCCC2)cc1 (stereo partly shown) [Compound 3-4]
Calculated Conc. for each compound in rat lysosomal lysate ([1]; 37° C., 0 m): 1252 nM
Calculated Conc. for each compound in rat lysosomal lysate ([1]; 37° C., 5 m): 501.28 nM
Calculated Conc. for each compound in rat lysosomal lysate ([1]; 37° C., 10 m): 149.18 nM
Calculated Conc. for each compound in rat lysosomal lysate [1, 5]: 3128.83 nM
detectability of drug-linker in rat lysosomal extract (in words) ([1]; after 10 minutes incubation): no longer detectable
Calculated Conc. for each compound in human whole blood ([2]; 37° C., 0 m): 1382 nM
Calculated Conc. for each compound in human whole blood ([2]; 37° C., 5 m): 1325 nM
Calculated Conc. for each compound in human whole blood ([2]; 37° C., 15 m): 1398 nM
Calculated Conc. for each compound in human whole blood ([2]; 37° C., 30 m): 1250 nM
Calculated Conc. for each compound in human whole blood ([2]; 37° C., 1 hr): 1141 nM
Calculated Conc. for each compound in human whole blood ([2]; 37° C., 2 hr): 1703 nM
solubility [3]: > 10000 µg/mL

SMILES: C[C@@H]1C[C@H]2[C@@H]3CCC4=CC(=O)C=C[C@]4(C)[C@@]3(F)[C@@H](O)C[C@]2(C)[C@@]1(O)C(=O)COP(=O)(O)OCCNC(=O)COC1C#CCCCCC1 (stereo partly drawn) [Compound 4-3, 2-(2-(cyclooct-2-yn-1-yloxy)acetamido)ethyl (2-((8S,9R,10S,11S,13S,14S,16R,17R)-9-fluoro-11,17-dihydroxy-10,13,16-trimethyl-3-oxo-6,7,8,9,10,11,12,13,14,15,16,17-dodecahydro-3H-cyclopenta[a]phenanthren-17-yl)-2-oxoethyl) hydrogen phosphate]
Calculated Conc. for each compound in human whole blood (0 min): 1539 nM
Calculated Conc. for dexamethasone in human whole blood (20 min): 0 nM
Calculated Conc. for each compound in human whole blood (20 min): 1861 nM
Calculated Conc. for dexamethasone in human whole blood (1 h): 0 nM
Calculated Conc. for each compound in human whole blood (1 h): 1619 nM
Calculated Conc. for dexamethasone in human whole blood (3 h): 1 nM
Calculated Conc. for each compound in human whole blood (3 h): 1677 nM
Calculated Conc. for dexamethasone in human whole blood (6 h): 3 nM
Calculated Conc. for each compound in human whole blood (6 h): 2040 nM
solubility (physchem): > 10000 µg/mL
Calculated Conc. for dexamethasone in rat lysosomal lysate ([4]; 0 min): 0.9 nM
Calculated Conc. for each compound in rat lysosomal lysate ([4]; 0 min): 888.8 nM
Calculated Conc. for dexamethasone in rat lysosomal lysate ([4]; 5 min): 14.5 nM
Calculated Conc. for each compound in rat lysosomal lysate ([4]; 5 min): 1156.1 nM
Calculated Conc. for dexamethasone in rat lysosomal lysate ([4]; 10 min): 14.2 nM
Calculated Conc. for each compound in rat lysosomal lysate ([4]; 10 min): 983.4 nM
Calculated Conc. for dexamethasone in rat lysosomal lysate ([4]; 15 min): 22.3 nM
Calculated Conc. for each compound in rat lysosomal lysate ([4]; 15 min): 1032.6 nM
Calculated Conc. for dexamethasone in rat lysosomal lysate ([4]; 30 min): 28.9 nM
Calculated Conc. for each compound in rat lysosomal lysate ([4]; 30 min): 980.1 nM
Calculated Conc. for dexamethasone in rat lysosomal lysate ([4]; 1 h): 41.6 nM
Calculated Conc. for each compound in rat lysosomal lysate ([4]; 1 h): 882.4 nM
Calculated Conc. for dexamethasone in rat lysosomal lysate ([4]; 2 h): 72.5 nM
Calculated Conc. for each compound in rat lysosomal lysate ([4]; 2 h): 880.1 nM
Calculated Conc. for dexamethasone in rat lysosomal lysate ([4]; 3 h): 90.2 nM
Calculated Conc. for each compound in rat lysosomal lysate ([4]; 3 h): 903.8 nM
Calculated Conc. for dexamethasone in rat lysosomal lysate ([4]; 6 h): 141.9 nM
Calculated Conc. for each compound in rat lysosomal lysate ([4]; 6 h): 858.9 nM

SMILES: C[C@@H]1C[C@H]2[C@@H]3CCC4=CC(=O)C=C[C@]4(C)[C@@]3(F)[C@@H](O)C[C@]2(C)[C@@]1(O)C(=O)COP(=O)(O)Oc1ccc(NC(=O)COC2C#CCCCCC2)cc1 (stereo partly drawn) [Compound 5-3, 4-(2-(cyclooct-2-yn-1-yloxy)acetamido)phenyl (2-((8S,9R,10S,11S,13S,14S,16R,17R)-9-fluoro-11,17-dihydroxy-10,13,16-trimethyl-3-oxo-6,7,8,9,10,11,12,13,14,15,16,17-dodecahydro-3H-cyclopenta[a]phenanthren-17-yl)-2-oxoethyl) hydrogen phosphate]
Calculated Conc. for each compound in rat lysosomal lysate ([1]; 37° C., 0 m): 1394.08 nM
Calculated Conc. for each compound in rat lysosomal lysate ([1]; 37° C., 5 m): 1295.86 nM
Calculated Conc. for each compound in rat lysosomal lysate ([1]; 37° C., 10 m): 1278.4 nM
Calculated Conc. for each compound in rat lysosomal lysate ([1]; 37° C., 15 m): 1407.73 nM
Calculated Conc. for each compound in rat lysosomal lysate ([1]; 37° C., 30 m): 1175.39 nM
Calculated Conc. for each compound in rat lysosomal lysate ([1]; 37° C., 1 hr): 970.65 nM
Calculated Conc. for each compound in rat lysosomal lysate ([1]; 37° C., 2 hr): 743.45 nM
Calculated Conc. for each compound in rat lysosomal lysate ([1]; 37° C., 3 hr): 500.41 nM
Calculated Conc. for each compound in rat lysosomal lysate ([1]; 37° C., 6 hr): 221.03 nM
Calculated Conc. for each compound in rat lysosomal lysate [1, 5]: 2555.29 nM
Calculated Conc. for each compound in human whole blood ([2]; 37° C., 0 m): 1299 nM
Calculated Conc. for each compound in human whole blood ([2]; 37° C., 5 m): 1251 nM
Calculated Conc. for each compound in human whole blood ([2]; 37° C., 15 m): 1276 nM
Calculated Conc. for each compound in human whole blood ([2]; 37° C., 30 m): 1111 nM
Calculated Conc. for each compound in human whole blood ([2]; 37° C., 1 hr): 937 nM
Calculated Conc. for each compound in human whole blood ([2]; 37° C., 2 hr): 1480 nM
solubility [3]: > 10000 µg/mL

Calculated Conc. for each compound in rat lysosomal lysate ([1]; 37° C., 0 m): 1456.4 nM
Calculated Conc. for each compound in rat lysosomal lysate ([1]; 37° C., 5 m): 1851.2 nM
Calculated Conc. for each compound in rat lysosomal lysate ([1]; 37° C., 10 m): 1640.8 nM
Calculated Conc. for each compound in rat lysosomal lysate ([1]; 37° C., 15 m): 1666.7 nM
Calculated Conc. for each compound in rat lysosomal lysate ([1]; 37° C., 30 m): 1602.6 nM
Calculated Conc. for each compound in rat lysosomal lysate ([1]; 37° C., 1 hr): 1576.8 nM
Calculated Conc. for each compound in rat lysosomal lysate ([1]; 37° C., 2 hr): 1681.0 nM
Calculated Conc. for each compound in rat lysosomal lysate ([1]; 37° C., 3 hr): 1689.7 nM
Calculated Conc. for each compound in rat lysosomal lysate ([1]; 37° C., 6 hr): 1689.8 nM
Calculated Conc. for each compound in rat lysosomal lysate [1, 5]: 2059.0 nM
Calculated Conc. for each compound in human whole blood ([2]; 37° C., 0 m): 1687 nM
Calculated Conc. for each compound in human whole blood ([2]; 37° C., 20 m): 2409 nM
Calculated Conc. for each compound in human whole blood ([2]; 37° C., 1 hr): 2224 nM
Calculated Conc. for each compound in human whole blood ([2]; 37° C., 3 hr): 1502 nM
Calculated Conc. for each compound in human whole blood ([2]; 37° C., 6 hr): 2792 nM
Calculated Conc. for each compound in human whole blood ([2]; Matrix spiking (time 0 sample, blood pretreated with stopping reagent)): 2939 nM
SMILES: C[C@@H]1C[C@H]2[C@@H]3CCC4=CC(=O)C=C[C@]4(C)[C@@]3(F)[C@@H](O)C[C@]2(C)[C@@]1(O)C(=O)CO [Dexamethasone, dexamethasone, reference compound]
